Entries after “also recorded” stand apart in the source; their conditions may differ. Where two headings read alike, the source gives them in different places. Numbered stars: 1 amine (or outer) side, 2 acyl side, 3 side chain; on linkers, the order of the positions; unused ones are H or OH. Bridge positions count the residues as written; N and C are the ends. Square brackets hold non-standard residues; d marks the D form. Peptide text beside a SMILES is read from it. nitrobenzoyl (NO2-C6H3-CO) = nitrobenzoyl unit acylating the N-terminal His, with its aryl carbon thioether-bonded to the Cys side-chain S; X1 = O=C(c1cc([N+](=O)[O-])ccc1[*:2])[*:1]
Experiments:
MC1R [1] = target: T1, MC1R (Mus musculus, UniProt Q01727); settings: ref [20], cited from earlier work
T1 construct: endogenous in cells; host or cells: murine melanoma B16F1 cells
T1 sequence (Q01727 whole entry): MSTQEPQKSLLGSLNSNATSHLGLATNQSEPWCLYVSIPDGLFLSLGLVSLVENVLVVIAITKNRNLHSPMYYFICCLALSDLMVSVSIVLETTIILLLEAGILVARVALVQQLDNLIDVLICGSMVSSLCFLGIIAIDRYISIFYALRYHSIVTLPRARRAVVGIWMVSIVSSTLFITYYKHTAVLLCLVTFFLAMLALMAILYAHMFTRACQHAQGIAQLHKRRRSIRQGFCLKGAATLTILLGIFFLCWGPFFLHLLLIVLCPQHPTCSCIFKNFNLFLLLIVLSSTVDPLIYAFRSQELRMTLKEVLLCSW
Description: Table 1 Sequences, cycle size and MC1R binding affinities (IC50) of cyclic α-MSH analogues. | column: IC50 (nM) || Linear and cyclic analogues of the α-melanocyte stimulating hormone (α-MSH) targeting the human melanocortin receptor 1 (MC1R) are of pharmacological interest for detecting and treating melanoma. The central sequence of α-MSH (His-Phe-Arg-Trp) has been identified as being essential for receptor binding. To deepen current knowledge on the molecular basis for α-MSH bioactivity, we aimed to understand the effect of cycle size on receptor binding. To that end, we synthesised two macrocyclic isomeric α-MSH analogues, c[NH-NO2-C6H3-CO-His-DPhe-Arg-Trp-Lys]-Lys-NH2 (CycN-K6) and c[NH-NO2-C6H3-CO-His- ... || Aimed at enhancing the biological stability, potency and specificity of the endogenous ligand, a library of α-MSH analogues has been designed for imaging and therapeutic applications. […] However, replacement of the alkylthioaryl-bridge (Cy ... || (+ 1 further places)

MC1R [2] = target: T1, MC1R; test: Competitive binding assay with [125I]-NDP-α-MSH in B16F1 melanoma cells; settings: [125I]-[Nle4,DPhe7]-α-MSH radioligand, murine melanoma B16F1 cells, in triplicate, GraphPad Prism fit, read-out: MC1R binding affinity (IC50)
Protocol: The binding affinities of the peptides CycN-K6 and CycN-K7 to MC1R were tested in a competitive binding assay using [^125I]-[Nle^4,DPhe^7]-α-MSH ([^125I]-NDP-α-MSH) as radioligand and murine melanoma B16F1 cells (Figure S1, Supplementary Materials), as previously described for other α-MSH analogues. Table 1 lists the IC50 values obtained for those two peptides, and for the 19-membered macrocyclic peptides PG10N and CycS-C6 [19, 20]. […] Therefore, a detailed structural comparison of these three peptides is required to understand the molecular basis for their binding to receptor MC1R.
NDP-α-MSH was radioiodinated as described. To determine the inhibitory concentration of 50 % (IC50) values for the α-MSH analogues, competitive binding assays with [^125I]NDP-α-MSH in B16F1 melanoma cells were carried out in triplicate following the previously described procedure. IC50 values were calculated from the plots of the percentage of [^125I]NDP-α-MSH bound to the cells vs. the concentrations of displacing peptides by using GraphPad Prism software (GraphPad Software Inc., La Jolla, CA, USA).

all human MCRs = settings: ref [19]; cited from earlier work
Description: Aimed at enhancing the biological stability, potency and specificity of the endogenous ligand, a library of α-MSH analogues has been designed for imaging and therapeutic applications. […] However, replacement of the alkylthioaryl-bridge (Cy ...

MC1R [3] = settings: 19-membered parent peptide; ref [19]; read-out: MC1R binding affinity (IC50); cited from earlier work
Description: Table 1 Sequences, cycle size and MC1R binding affinities (IC50) of cyclic α-MSH analogues. | column: IC50 (nM)

**Q.** For “c[S–NO2–C6H3–CO–His–DPhe–Arg–Trp–Cys]–Lys–NH2 (sidechain bridge or staple) [CycS-C6, 19-membered cyclic analogue, previously reported by the authors]”, which “MC1R binding in words” value (MC1R [1]; relative to parent PG10N, addition of C-terminal Lys) is on record?
**A.** strongly decreases affinity to MC1R; also recorded: impaired binding

**Q.** Which IC50 (MC1R [2]) does the source give for `N=C(N)NCCC[C@@H]1NC(=O)[C@@H](Cc2ccccc2)NC(=O)[C@H](Cc2c[nH]cn2)NC(=O)c2cc([N+](=O)[O-])ccc2NCCCC[C@@H](C(N)=O)NC(=O)[C@H](CCCCN)NC(=O)[C@H](Cc2c[nH]c3ccccc23)NC1=O` [CycN-K7, c[NH–NO2–C6H3–CO–His–DPhe–Arg–Trp–Lys–Lys]–NH2] (H[dF]RWKK-NH2; linker N-6 via X1) here?
**A.** 0.495 ± 0.101 µM

**Q.** For “c[S–NO2–C6H3–CO–His–DPhe–Arg–Trp–Cys]–Lys–NH2 (sidechain bridge or staple) ({nitrobenzoyl (NO2-C6H3-CO)}-H[dF]RWCK-NH2; thioether N-5) [CycS-C6, 19-membered cyclic analogue, previously reported by the authors]”, which IC50 (MC1R [1]; previously reported by the authors, competitive binding, [125I]-NDP-α-MSH, B16F1 cells, read-out: MC1R binding affinity (IC50)) is on record?
**A.** 1.77 ± 0.48 µM

**Q.** Which IC50 (MC1R [2]) does the source give for `N=C(N)NCCC[C@@H]1NC(=O)[C@@H](Cc2ccccc2)NC(=O)[C@H](Cc2c[nH]cn2)NC(=O)c2cc([N+](=O)[O-])ccc2NCCCC[C@@H](C(=O)N[C@@H](CCCCN)C(N)=O)NC(=O)[C@H](Cc2c[nH]c3ccccc23)NC1=O` [CycN-K6, c[NH–NO2–C6H3–CO–His–DPhe–Arg–Trp–Lys]–Lys–NH2] (H[dF]RWKK-NH2; linker N-5 via X1) here?
**A.** 0.155 ± 0.016 µM

**Q.** What does the source list for “c[S–NO2–C6H3–CO–His–DPhe–Arg–Trp–Cys]–NH2 (sidechain bridge or staple) [PG10N, 19-membered alkylthioaryl-bridged macrocyclic α-MSH analogue]”?
**A.** agonist activity (all human MCRs): potent full agonist for all human MCRs; IC50 (MC1R [3]): 0.0037 ± 0.0005 µM
